Experimental data reported in ChEMBL document CHEMBL2073962, “Wild-type breast cancer resistance protein (BCRP/ABCG2) is a methotrexate polyglutamate transporter” (Cancer Res, 2003).

How the values were obtained:
[1] = target: T1, Broad substrate specificity ATP-binding cassette transporter ABCG2 (Homo sapiens, UniProt Q9UNQ0); experiment: TP_TRANSPORTER: inhibition of MTX in membrane vesicles from BCRP-expressing MCF7 cells; assay type: functional, cell membranes, Membrane vesicle
T1 sequence (Q9UNQ0 whole entry): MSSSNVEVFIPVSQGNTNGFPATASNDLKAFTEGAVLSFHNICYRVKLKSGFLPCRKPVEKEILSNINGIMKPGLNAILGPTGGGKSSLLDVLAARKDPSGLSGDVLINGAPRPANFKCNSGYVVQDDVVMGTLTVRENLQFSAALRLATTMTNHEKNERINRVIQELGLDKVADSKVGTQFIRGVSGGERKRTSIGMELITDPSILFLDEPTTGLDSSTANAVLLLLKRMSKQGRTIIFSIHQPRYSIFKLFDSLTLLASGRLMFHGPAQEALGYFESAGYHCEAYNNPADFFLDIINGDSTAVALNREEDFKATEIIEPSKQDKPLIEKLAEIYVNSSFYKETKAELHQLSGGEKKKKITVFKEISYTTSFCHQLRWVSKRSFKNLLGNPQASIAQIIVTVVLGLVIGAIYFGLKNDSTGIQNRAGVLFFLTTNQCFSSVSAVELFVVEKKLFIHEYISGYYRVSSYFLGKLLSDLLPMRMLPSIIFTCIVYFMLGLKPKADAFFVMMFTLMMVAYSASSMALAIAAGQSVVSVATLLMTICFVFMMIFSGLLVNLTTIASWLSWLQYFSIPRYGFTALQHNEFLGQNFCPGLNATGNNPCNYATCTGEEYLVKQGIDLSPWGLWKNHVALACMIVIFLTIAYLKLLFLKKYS

[2] = target: T1, Broad substrate specificity ATP-binding cassette transporter ABCG2; experiment: (§1) TP_TRANSPORTER: uptake (vesicle) in membrane vesicles from BCRP-expressing MCF7 cells; assay type: functional, cell membranes
[3] = target: T1, Broad substrate specificity ATP-binding cassette transporter ABCG2; experiment: TP_TRANSPORTER: inhibition of MTX update by Mitoxantrone at a concentration of 50uM in membrane vesicles from BCRP-expressing MCF7 cells; assay type: functional, cell membranes, Membrane vesicle; set-up: scale not given: the % may be the effect or the level left; settings: mcf7, 50 µM
[4] = substrate: CN(Cc1cnc2nc(N)nc(N)c2n1)c1ccc(C(=O)N[C@@H](CCC(=O)O)C(=O)O)cc1; experiment: as §1; assay type: functional, cell membranes

Molecule: COc1ccc2c3c([nH]c2c1)[C@H](C=C(C)C)N1C(=O)[C@@H]2CCCN2C(=O)[C@@H]1C3 [FUMITREMORGIN]
- Activity [1]: inhibitor []

Molecule: CN(Cc1cnc2nc(N)nc(N)c2n1)c1ccc(C(=O)N[C@@H](CCC(=O)N[C@@H](CCC(=O)N[C@@H](CCC(=O)O)C(=O)O)C(=O)O)C(=O)O)cc1
- Activity [2]: substrate []

Molecule: CN(Cc1cnc2nc(N)nc(N)c2n1)c1ccc(C(=O)N[C@@H](CCC(=O)N[C@@H](CCC(=O)N[C@@H](CCC(=O)N[C@@H](CCC(=O)O)C(=O)O)C(=O)O)C(=O)O)C(=O)O)cc1
- Activity [2]: substrate []

Molecule: O=C1c2c(O)ccc(O)c2C(=O)c2c(NCCNCCO)ccc(NCCNCCO)c21 [MITOXANTRONE]
- Activity [3]: 50%

B1: Broad substrate specificity ATP-binding cassette transporter ABCG2 (Homo sapiens) (protein)
chain: T1 sequence (Q9UNQ0 whole entry)
- Km [4]: 680 µM
